From US8815499B2, “In situ detoxification of fermentation inhibitors with reducing agents” (priority 2009, dated 2014)
Where two headings read alike, the source gives them in different places.

Assays:
[1] = test system: yeast Saccharomyces cerevisiae
Protocol: A spruce slurry was prepared an subjected to acidic hydrolysis as described in Example 6. […] Sodium dithionite was added to different samples to concentrations of 2.5, 5, 7.5, 10, 12.5, and 15 mM. The treatments were performed at 21° C. for 5 min with stirring. In addition, treatments with 0.1% (7.9 mM) and 1% (79.3 mM) sodium sulphite were performed. […] Furthermore, a sugar solution (glucose 18 g/L, mannose 14 g/L) was prepared to evaluate if the effect of the sodium dithionite treatment was due to an effect on the hydrolysate or the ethanolic fermentation with yeast. Half of the sugar solution was treated with 10 mM sodium dithionite, whereas the rest was left untreated as a reference. The volumes of treated and untreated samples were equalized with water and the pH was adjusted to pH 5.5 prior to the fermentation. Fermentation was performed with the yeast Saccharomyces cerevisiae as described in the previous Examples.
Spruce hydrolysate samples were prepared as in Example 6.
Two samples were treated with DTT to 2 and 20 mM, respectively, two samples were treated with ascorbic acid to 10 and 100 mM, respectively and two samples were treated with glutathione to 1 and 10 mM, respectively.
The treatment time was 3 h for all samples and fermentation was performed as described in the previous Examples.

[2] = test system: baker's yeast (Saccharomyces cerevisiae); type: cell-based
Protocol: The pH of the sugarcane bagass and spruce hydrolysates were adjusted to 5.5 with a 5 M solution of sodium hydroxide. The conditioning of each hydrolysate was performed in eight 100-mL glass vessels equipped with magnetic stirrer bars. 26 mL hydrolysate was added to all vessels, and the vessels were placed on a magnetic stirrer plate (IKA-Werke, Staufen, Germany). Sodium dithionite (chemical grade; >87%, Merck, Darmstadt, Germany) was added to hydrolysates in the concentrations 5 and 10 mM. Additions of sodium sulphite to 5 and 10 mM were also performed. The additions were made at room temperature (23° C.) and the samples were kept for 10 min with stirring. The experiments were performed in duplicates.
The efficiency of the additions of the reducing agents was compared with alkali detoxification.
Ethanol measurements were performed by using an enzymatic kit (Ethanol UV-method, Boehringer Mannheim GmbH, Mannheim, Germany). Fermentation experiments were performed to evaluate the effectiveness of the additions and treatments. For comparison, untreated hydrolysates were included in the fermentation experiments as well as reference fermentations of sugar-based medium with an amount of fermentable sugars (i.e. glucose and mannose) corresponding to that in the hydrolysate samples. The fermentations were carried out using baker's yeast (Saccharomyces cerevisiae) (Jästbolaget AB, Rotebro, Sweden). The yeast inoculum was prepared in 750-mL cotton-plugged shake flasks with 300 mL YEPD medium ([…], 2% D-glucose). The flasks were inoculated and incubated with agitation at 30° C. for approximately 12 h. The cells were harvested in the late exponential growth phase by centrifugation (Hermla Z206A, Hermle Labortechnik GmbH, Wehingen, Germany) at 1,500 g for 5 min. The cells were resuspended in an appropriate amount of sterile water to achieve an inoculum consisting of 2.0 g/L (cell dry weight) in all fermentation vessels. The fermentation was carried out in 14 25-mL glass flasks equipped with magnets for stirring and sealed with rubber plugs pierced with cannulas for letting out carbon dioxide. The hydrolysate samples (23.75 mL), or alternatively the sugar solution for reference fermentations, were added to the fermentation flasks along with 0.5 mL of a nutrient solution (150 g/L yeast extract, 75 g/L (NH4)2HPO4, 3.75 g/L MgSO4.7 H2O, 238.2 g/L NaH2PO4.H2O), and 0.75 mL of yeast inoculum. The flasks were incubated at 30° C. in a water bath with magnetic stirring (IKA-Werke). Samples for measurement of sugars and ethanol were withdrawn during the fermentation. The glucose levels during the fermentation were estimated by using a glucometer (Glucometer Elite XL, Bayer AG, Leverkusen, Germany).

[3] = test system: yeast Saccharomyces cerevisiae; assay: Simultaneous saccharification and fermentation (SSF) of spruce slurry; type: cell-based; settings: for Ethanol concentration: after 70 hours
Protocol: Addition of sodium dithionite and sodium sulphite was tested in an SSF process. Spruce was pretreated as described in Example 1 above. The spruce slurry was adjusted to pH 5.4 with a 5 M solution of sodium hydroxide. Ten 250-mL shake flasks equipped with magnetic stirrer bars were filled with 100 g of spruce slurry. Sodium dithionite or sodium sulphite was added to the slurries to final concentrations of 7.5 and 10 mM. The additions were performed at room temperature (23° C.) for 10 min with stirring. Duplicate experiments were made. Cellulase and cellobiase preparations were prepared and added to the slurry using the enzyme activity loadings as described in Example 1 above. Further, the yeast inoculum was prepared according to Example 1 above. Inoculums were added to give a start concentration of 2.0 g/L (cell dry weight) in every flask. No source of extra nutrients was added. For comparison, two flasks with spruce slurry to which no reducing agents had been added were included in the experiment. The flasks were incubated at 35° C. for 69 h in a water bath with magnetic stirring. The flasks were sealed with Parafilm (Pechiney Plastic Packaging Company, Chicago, Ill., USA) to prevent evaporation of ethanol. Samples were withdrawn for analysis of ethanol according to Example 1 above.
A spruce slurry was prepared according to Examples 1 and 2 above. Different flasks were filled with 100 g each of the spruce slurry and were subjected to a SSF process according to Example 2 above, but with different amounts of dithionite and sulphite added. The produced ethanol was monitored during the fermentation. […]

[4] = test system: yeast Saccharomyces cerevisiae; assay: Simultaneous saccharification and fermentation (SSF) of sugarcane bagass slurry; type: cell-based; settings: 7.5 and 10 mM, FIG. 9
Protocol: SSF experiments were also performed with sugarcane bagass slurries. […] Reducing agents, dithionite and sulphite, respectively, were added 10 min prior to inoculum in concentrations of studied 7.5 and 10 mM. The ethanol concentration was measured after 13 and 45 hours according to the protocol described in Example 1.

[5] = test system: yeast Saccharomyces cerevisiae; assay: Fermentation of sugar solution with model inhibitor coniferyl aldehyde; settings: sugar solution with coniferyl aldehyde (2.5 mM), untreated, FIG. 12
Protocol: (§1) A sugar solution (glucose 18 g/L, mannose 14 g/L) with a coniferyl aldehyde concentration of 2.5 mM was prepared. Half of the solution was treated with 10 mM of sodium dithionite and the rest of the solution was left untreated as a reference. Fermentation was performed with the yeast Saccharomyces cerevisiae as described in the previous Examples.

[6] = as above; settings: Saccharomyces cerevisiae
Protocol: as §1

[7] = bagass hydrolysate, 6 h fermentation, 10 mM
[8] = spruce hydrolysate, 14 h fermentation, 10 mM

With O[C@H](CS)[C@H](O)CS (racemic) [DTT, Dithiothreitol] the Fermentability ([1]; acid spruce hydrolysate, 20 mM, treatment time 3 h) was “improved fermentability” and the “Glucose consumption rate compared with the untreated sample” value ([1]; acid spruce hydrolysate, 20 mM, treatment time 3 h, FIG. 13) was “higher glucose consumption rate”.
For N [NH4OH, ammonium hydroxide, reference compound], the Ethanol concentration ([1]; NH4OH treatment, 2.75 h) was 4.56 g/L, the Productivity ([1]; NH4OH treatment, 2.75 h) was 1.66 g EtOH × L^−1 × h^−1 and the Yield ([1]; NH4OH treatment, 2.75 h) was 0.30 g EtOH/g consumed glucose and mannose. The Ethanol concentration ([1]; NH4OH treatment, 4.25 h) was 10.75 g/L, the Productivity ([1]; NH4OH treatment, 4.25 h) was 2.53 g EtOH × L^−1 × h^−1 and the Yield ([1]; NH4OH treatment, 4.25 h) was 0.42 g EtOH/g consumed glucose and mannose. The Ethanol concentration ([1]; NH4OH treatment, 6.25 h) was 9.81 g/L, the Productivity ([1]; NH4OH treatment, 6.25 h) was 1.57 g EtOH × L^−1 × h^−1 and the Yield ([1]; NH4OH treatment, 6.25 h) was 0.32 g EtOH/g consumed glucose and mannose. The Ethanol concentration ([1]; NH4OH treatment, 9.25 h) was 14.08 g/L, the Productivity ([1]; NH4OH treatment, 9.25 h) was 1.52 g EtOH × L^−1 × h^−1 and the Yield ([1]; NH4OH treatment, 9.25 h) was 0.47 g EtOH/g consumed glucose and mannose. The Viable cells ([1]; acid spruce hydrolysate, NH4OH treatment, fermentation time 2.25 h) was 95.3 ± 3.0%, the Yield ([2]; bagass hydrolysate, 6 h fermentation, NH4OH detoxification) was 0.34 g EtOH/g consumed glucose & mannose and the Yield ([2]; spruce hydrolysate, 14 h fermentation, NH4OH detoxification) was 0.43 g EtOH/g consumed glucose & mannose.
In the case of O=S([O-])[O-].[Na+].[Na+] [Sulphite, sodium sulphite], the “Fermentability (glucose consumption)” value ([1]; acid spruce hydrolysate, 1% (79.3 mM), FIG. 11) was “better fermentability compared to the untreated hydrolysate”, the Balanced ethanol yield [2, 7] was 0.21 g EtOH/Σglucose & mannose prior to detoxification and the Productivity [2, 7] was 2.9 g EtOH × L^−1 × h^−1. For the same molecule, the Yield [2, 7] was 0.32 g EtOH/g consumed glucose & mannose, the Ethanol production ([2]; bagass hydrolysate, 6 h fermentation, FIG. 4) was “high ethanol production” and the “Glucose consumption rates and amounts of ethanol produced” value ([2]; spruce hydrolysate, 10 mM, FIGS. 1 and 2) was “substantial improvement”. The Balanced ethanol yield [2, 8] was 0.16 g EtOH/Σglucose & mannose prior to detoxification, the Productivity [2, 8] was 1.2 g EtOH × L^−1 × h^−1 and the Yield [2, 8] was 0.29 g EtOH/g consumed glucose & mannose. The Ethanol concentration ([3]; 2.5 mM) was “did not result in as high final ethanol concentrations”, the Ethanol concentration ([3]; 5 mM) was “did not result in as high final ethanol concentrations” and the Ethanol concentration ([3]; 7.5 mM) was 35 to 40 g/L. For the same molecule, the Ethanol concentration ([3]; 10 mM) was 35 to 40 g/L, the Ethanol concentration ([3]; 15 mM) was “about 40 g/L” and the Ethanol concentration ([3]; 20 mM) was “about 40 g/L”. For the same molecule, the Ethanol concentration ([3]; 30 mM) was “about 40 g/L”, the “Ethanol production compared to the untreated hydrolysate” value ([3]; 7.5 and 10 mM, FIG. 5) was “higher ethanol production” and the “Time after which ethanol formation leveled off” value ([3]; 7.5 and 10 mM, FIG. 5) was 20 h. The “Fermentability (ethanol production after 13 and 45 hours)” value [4] was “improved fermentability”.
With O=C1O[C@H]([C@@H](O)CO)C(O)=C1O [ascorbic acid] the Fermentability ([1]; acid spruce hydrolysate, 100 mM, treatment time 3 h) was “improved fermentability”.
For COc1cc(/C=C/C=O)ccc1O [coniferyl aldehyde, reference compound], the Glucose consumption [5] was “approximately no reduced glucose concentration”, the viability at 2.25 h, 2.5 mM [6] was 1.7% and the viability at 7 h, 2.5 mM [6] was 0%.
In the case of N[C@@H](CCC(=O)N[C@@H](CS)C(=O)NCC(=O)O)C(=O)O [glutathione, reduced glutathione], the Fermentability ([1]; acid spruce hydrolysate, 10 mM, treatment time 3 h) was “improved fermentability”.
